For orientation: mortality means the share of the test organisms that died.

Common to all, as to assay type: in vivo
Experiment [1] relates to Ctenocephalides felis. Nature of the experiment: Ctenocephalides felis in vitro contact test with adult cat fleas. Conditions: application rate 5 μg/cm^2 (=500 g/ha); after 48 h. Here is the method:
Ctenocephalides felis—In Vitro Contact Tests with Adult Cat Fleas
(§1) For the coating of the test tubes, 9 mg of active compound are first dissolved in 1 ml of acetone p.a. and then diluted to the desired concentration with acetone p.a. 250 μl of the solution are distributed homogeneously on the inner walls and the base of a 25 ml glass tube by turning and rocking on an orbital shaker (rocking rotation at 30 rpm for 2 h). With 900 ppm of active compound solution and internal surface area 44.7 cm^2, given homogeneous distribution, an area-based dose of 5 μg/cm^2 is achieved.
After the solvent has evaporated off, the tubes are populated with 5-10 adult cat fleas (Ctenocephalides felis), sealed with a perforated plastic lid and incubated in a horizontal position at room temperature and ambient humidity. After 48 h, efficacy is determined. To this end, the tubes are stood upright and the fleas are knocked to the base of the tube. Fleas which remain motionless at the base or move in an uncoordinated manner are considered to be dead or moribund.
100% efficacy means that all the fleas were dead or moribund. 0% efficacy means that no fleas were harmed.

The test system of another experiment is Rhipicephalus sanguineus. The experiment can be described thus: Rhipicephalus sanguineus in vitro contact test with adult brown dog ticks. To be noted: application rate 5 μg/cm^2 (=500 g/ha); after 48 h. As for the experimental part:
Rhipicephalus sanguineus—In Vitro Contact Tests with Adult Brown Dog Ticks
as §1
After the solvent has evaporated off, the tubes are populated with 5-10 adult dog ticks (Rhipicephalus sanguineus), sealed with a perforated plastic lid and incubated in a horizontal position in the dark at room temperature and ambient humidity. After 48 h, efficacy is determined. To this end, the ticks are knocked to the base of the tube and incubated on a hotplate at 45-50° C. for not more than 5 min. Ticks which remain motionless on the base or move in such an uncoordinated manner that they are unable to deliberately avoid the heat by climbing upwards are considered to be dead or moribund.
An efficacy of 100% means that all the ticks were dead or moribund. 0% efficacy means that none of the ticks were harmed.

Another experiment relates to Boophilus microplus. Nature of the experiment: Boophilus microplus injection test. Conditions: for pest or weed control at 0.02 mg: Rhipicephalus microplus, 168 h. Here is the method: Boophilus microplus—Injection Test
(§2) Solvent: dimethyl sulfoxide
To produce a suitable active compound formulation, 10 mg of active compound are mixed with 0.5 ml of solvent and the concentrate is diluted to the desired concentration with solvent.
1 μl of the active compound solution is injected into the abdomen of 5 engorged adult female cattle ticks (Boophilus microplus). The animals are transferred into dishes and kept in a climate-controlled room.
Efficacy is assessed after 7 days by laying of fertile eggs. Eggs which are not visibly fertile are stored in a climate-controlled cabinet until the larvae hatch after about 42 days. An efficacy of 100% means that none of the ticks has laid any fertile eggs; 0% means that all the eggs are fertile.

Experiment [2] has as its system Ctenocephalides felis. Nature of the experiment: Ctenocephalides felis oral test. Conditions: application rate 100 ppm in citrated cattle blood; after 2 days. As for the experimental part:
Ctenocephalides felis—Oral Test
as §2
To produce a suitable active compound formulation, 10 mg of active compound are mixed with 0.5 ml of dimethyl sulfoxide. Dilution with citrated cattle blood gives the desired concentration.
About 20 unfed adult cat fleas (Ctenocephalides felis) are placed into a chamber which is closed at the top and bottom with gauze. A metal cylinder whose bottom end is closed with parafilm is placed onto the chamber. The cylinder contains the blood/active compound formulation, which can be imbibed by the fleas through the parafilm membrane.
After 2 days, the kill in % is determined. 100% means that all of the fleas have been killed; 0% means that none of the fleas have been killed.

For another experiment, the system named is Lucilia cuprina. Nature of the experiment: Lucilia cuprina test. To be noted: application rate 100 ppm; L1 larvae; after 2 days. As for the experimental part: as §2
To produce a suitable active compound formulation, 10 mg of active compound are mixed with 0.5 ml of dimethyl sulfoxide, and the concentrate is diluted with water to the desired concentration.
About 20 L1 larvae of the Australian sheep blowfly (Lucilia cuprina) are transferred into a test vessel containing minced horsemeat and the active compound formulation of the desired concentration.
After 2 days, the kill in % is determined. 100% means that all the larvae have been killed; 0% means that no larvae have been killed.

In the next experiment the test system is Phaedon cochleariae. Nature of the experiment: Phaedon cochleariae spray test. To be noted: for pest or weed control at 500 g/ha: Phaedon cochleariae, 168 h, read-out: efficacy. Here is the method: Phaedon cochleariae—Spray Test
(§3) Solvent: 78.0 parts by weight of acetone • • 1.5 parts by weight of dimethylformamide
(§4) Emulsifier: alkylaryl polyglycol ether
(§5) To produce a suitable active compound formulation, 1 part by weight of active compound is dissolved with the specified parts by weight of solvent and made up to the desired concentration with water containing an emulsifier concentration of 1000 ppm. To produce further test concentrations, the formulation is diluted with emulsifier-containing water.
Discs of Chinese cabbage leaves (Brassica pekinensis) are sprayed with an active compound formulation of the desired concentration and, after drying, populated with larvae of the mustard beetle (Phaedon cochleariae).
After 7 days, the efficacy in % is determined. 100% means that all the beetle larvae have been killed; 0% means that no beetle larvae have been killed.

The subject of another experiment is Spodoptera frugiperda. The experiment can be described thus: Spodoptera frugiperda spray test. To be noted: for pest or weed control at 500 g/ha: Spodoptera frugiperda, 168 h, read-out: efficacy. Here is the method:
Spodoptera frugiperda—Spray Test
as §3, §4, §5
Leaf discs of maize (Zea mays) are sprayed with an active compound formulation of the desired concentration and, after drying, populated with caterpillars of the fall armyworm (Spodoptera frugiperda).
After 7 days, the efficacy in % is determined. 100% means that all the caterpillars have been killed; 0% means that no caterpillar has been killed.

Another experiment deals with Tetranychus urticae. The experiment can be described thus: Tetranychus urticae spray test, OP-resistant. To be noted: application rate 500 g/ha; after 6 days. Here is the method: Tetranychus urticae—Spray Test, OP-Resistant
Solvent: 78.0 Parts by Weight of Acetone • • 1.5 parts by weight of dimethylformamide
as §4, §5
Discs of bean leaves (Phaseolus vulgaris) infested with all stages of the greenhouse red spider mite (Tetranychus urticae) are sprayed with an active compound formulation of the desired concentration.
After 6 days, the efficacy in % is determined. 100% means that all the spider mites have been killed; 0% means that no spider mites have been killed.

For experiment [3], the system named is Anopheles gambiae strain RSPH (homozygot kdr). Nature of the experiment: Anopheles test (ANPHGB surface treatment). To be noted: read-out: efficacy (mortality in %). As for the experimental part: Anopheles Test (ANPHGB Surface Treatment)
(§6) Solvent: acetone+2000 ppm rapeseed oil methyl ester (RME)
To produce an appropriate active compound formulation, the active compound is dissolved in the solvent (2 mg/ml). The active compound formulation is pipetted onto a glazed tile and, after it has dried off, adult mosquitoes of the species Anopheles gambiae strain RSPH (homozygot kdr) are placed onto the treated tile. The exposure time is 30 minutes.
(§7) 24 hours after contact with the treated surface, mortality in % is determined. 100% means that all mosquitoes have been killed; 0% means that none of the mosquitoes have been killed.

Experiment [4] concerns Anopheles funestus strain FUMOZ-R. The experiment can be described thus: Anopheles test (ANPHFU surface treatment). To be noted: read-out: efficacy (mortality in %). As for the experimental part: Anopheles Test (ANPHFU Surface Treatment)
as §6
To produce an appropriate active compound formulation, the active compound is dissolved in the solvent (2 mg/ml). The active compound formulation is pipetted onto a glazed tile and, after it has dried off, adult mosquitoes of the species Anopheles funestus strain FUMOZ-R (Hunt et al., Med Vet Entomol. 2005 Sep.; 19 (3):271-5) are placed onto the treated tile. The exposure time is 30 minutes.
as §7

For experiment [5], the system named is Aedes aegypti strain MONHEIM. Nature of the experiment: Aedes test (AEDSAE surface treatment). To be noted: read-out: efficacy (mortality in %). As for the experimental part:
Aedes Test (AEDSAE Surface Treatment)
as §6
To produce an appropriate active compound formulation, the active compound is dissolved in the solvent (2 mg/ml). The active compound formulation is pipetted onto a glazed tile and, after it has dried off, adult mosquitoes of the species Aedes aegypti strain MONHEIM are placed onto the treated tile. The exposure time is 30 minutes. 24 hours after contact with the treated surface, mortality in % is determined. 100% means that all mosquitoes have been killed; 0% means that none of the mosquitoes have been killed.

The mark [6] stands for this setting: application rate 20 μg/animal, after 7 days.
[7] abbreviates: application rate 500 g/ha, after 7 days.
The mark [8] stands for this setting: application rate 20 mg/m^2, exposure 30 minutes, 24 hours after contact.
[9] abbreviates: read-out: efficacy (laying of fertile eggs), application rate 20 μg/animal, after 7 days.

Where two headings read alike, the source gives them in different places.

For the compound `CON(C)CCOc1cnc(COc2ccc(Br)c3ccccc23)c(F)c1` [Example 21], the “efficacy (fleas dead or moribund)” value in the experiment with Ctenocephalides felis [1] came out at 100%. Besides, the “efficacy (ticks dead or moribund)” value with Rhipicephalus sanguineus is reported as 100%. For the same compound, in the experiment with Boophilus microplus (setting [6]), the “efficacy (laying of fertile eggs)” value was 100%. The results for the “efficacy (kill in %)” value with Ctenocephalides felis [2] and with Lucilia cuprina were 80% and 100%, respectively. Besides, the figures for the efficacy with Phaedon cochleariae (setting [7]), in the experiment on Spodoptera frugiperda (setting [7]) and with Tetranychus urticae were 100%, 100% and 90%, respectively.
In the case of `CON(C)CCOc1cnc(COc2ccc(Cl)c(-c3ccccc3)c2)c(F)c1` [Example 63], the “efficacy (fleas dead or moribund)” value with Ctenocephalides felis [1] was determined as 100%. Besides, the “efficacy (ticks dead or moribund)” value with Rhipicephalus sanguineus is 100%. Also, in the experiment on Boophilus microplus (setting [6]), the “efficacy (laying of fertile eggs)” value amounted to 100%. The “efficacy (kill in %)” value stood at 95% in the experiment on Ctenocephalides felis [2] and 100% in the experiment on Lucilia cuprina. In addition, the efficacy in the experiment on Phaedon cochleariae (application rate 100 g/ha, after 7 days) is 100%; in the experiment on Spodoptera frugiperda (setting [7]) it was 100%; in the experiment on Tetranychus urticae, 100%.
As to `CON(C)CCOc1cnc(COc2ccc(F)c(-c3ccccc3)c2)c(F)c1` [Example 71, 2-[(5-fluoro-6-{[(6-fluorobiphenyl-3-yl)oxy]methyl}pyridin-3-yl)oxy]-N-methoxy-N-methylethanamine], the “efficacy (fleas dead or moribund)” value with Ctenocephalides felis [1] was found to be 100%. Also, the “efficacy (ticks dead or moribund)” value in the experiment with Rhipicephalus sanguineus is reported as 100%. Besides, the pest or weed control at 0.02 mg with Boophilus microplus (application rate 20 μg/animal, after 7 days, read-out: efficacy (laying of fertile eggs)) worked out at 100%. For the same compound, the “efficacy (kill in %)” value with Lucilia cuprina was 100%. Also, the results for the pest or weed control at 500 g/ha with Phaedon cochleariae (setting [7]) and in the experiment with Spodoptera frugiperda (setting [7]) were 83% and 100%, respectively. The mortality at 20 mg/m2 in experiment [3] (setting [8]), in [4] (setting [8]) and in experiment [5] (setting [8]) was 80 to 100% each time.
Take `CON(C)CCOc1ccc(COc2ccc(Cl)c3ccccc23)c(F)n1` [Example 3, 2-[(5-{[(4-chloro-1-naphthyl)oxy]methyl}-6-fluoropyridin-2-yl)oxy]-N-methoxy-N-methylethanamine]: the mortality at 20 mg/m2 in experiment [3] and in [4] was 80 to 100% in each case. The mortality at 100 mg/m2 in [3], in [4] and in [5] was 80 to 100% each time.
Regarding `COc1cc(OCCN(C)OC)cnc1COc1ccc2oc3ccccc3c2c1` [Example 90, 2-({6-[(dibenzo[b,d]furan-2-yloxy)methyl]-5-methoxypyridin-3-yl}oxy)-N-methoxy-N-methylethanamine], the pest or weed control at 0.02 mg with Boophilus microplus (setting [9]) was 100%. Also, in the experiment with Lucilia cuprina, the “efficacy (kill in %)” value was found to be 80%. For the same compound, the pest or weed control at 500 g/ha in the experiment on Spodoptera frugiperda amounted to 83%. Further, the mortality at 100 mg/m2 in experiment [3], in experiment [4] and in experiment [5] was 80 to 100% throughout. For the same compound, in experiment [5], the mortality at 20 mg/m2 was 80 to 100%.
Turning to `N#CCN1CCC(Oc2ccc(COc3ccc(Cl)c4ccccc34)cn2)C1` (stereo not shown) [Example 5, {3-[(5-{[(4-chloro-1-naphthyl)oxy]methyl}pyridin-2-yl)oxy]pyrrolidin-1-yl}acetonitrile], the pest or weed control at 0.02 mg in the experiment on Boophilus microplus (setting [9]) stood at 100%. In the experiment on Lucilia cuprina, the “efficacy (kill in %)” value came out at 100%. The pest or weed control at 500 g/ha in the experiment on Phaedon cochleariae is 100%; in the experiment on Spodoptera frugiperda, 83%. In addition, the mortality at 20 mg/m2 in experiment [3] and in experiment [4] was 80 to 100% each time. Moreover, the mortality at 100 mg/m2 in experiment [3] lay in the range of 80 to 100%.
As for `CON(C)CCOc1cnc(COc2ccc(Cl)c(-c3cccc(F)c3)c2)c(F)c1` [Example 61], the “efficacy (fleas dead or moribund)” value in the experiment with Ctenocephalides felis [1] was 100%. In addition, the “efficacy (ticks dead or moribund)” value in the experiment with Rhipicephalus sanguineus was found to be 100%. Further, in the experiment with Boophilus microplus (setting [6]), the “efficacy (laying of fertile eggs)” value came out at 100%. Besides, the “efficacy (kill in %)” value in the experiment with Ctenocephalides felis [2] came to 90%; with Lucilia cuprina, 100%. In addition, the efficacy in the experiment on Spodoptera frugiperda (setting [7]) is on record as 100%; in the experiment with Tetranychus urticae, 90%.
For the compound `CCOc1nc(COc2cccc3c(Cl)c(Cl)ccc23)ccc1OCCN(C)OC` [Example 97, 2-[(6-{[(5,6-dichloro-1-naphthyl)oxy]methyl}-2-ethoxypyridin-3-yl)oxy]-N-methoxy-N-methylethanamine], in experiment [5] (setting [8]), the mortality at 20 mg/m2 is 80 to 100%.
Regarding `CN(CC#N)CCOc1cnc(COc2ccc3oc4ccccc4c3c2)c(F)c1` [Example 29, {[2-({6-[(dibenzo[b,d]furan-2-yloxy)methyl]-5-fluoropyridin-3-yl}oxy)ethyl](methyl)amino}acetonitrile], the pest or weed control at 0.02 mg in the experiment on Boophilus microplus (setting [9]) turned out to be 100%. Besides, the “efficacy (kill in %)” value in the experiment on Ctenocephalides felis [2] and in the experiment with Lucilia cuprina was 100% throughout. The pest or weed control at 500 g/ha with Phaedon cochleariae and in the experiment with Spodoptera frugiperda was 100% throughout. Besides, the mortality at 20 mg/m2 in experiment [3] fell in the range of 80 to 100%.

These data come from patent US11827616B2, “Heterocyclic compounds as pesticides” (Discovery Purchaser Corporation, priority 2018, dated 2023).
